Results: ChEMBL document CHEMBL5726067, “[8-(phenylsulfonyl)-3,8-diazabicyclo[3.2.1]oct-3-yl](1H-1,2,3-triazol-4-yl)methanones” (2019)

Biological target: T1, Aldo-keto reductase family 1 member C3 (Homo sapiens, UniProt P42330)
T1 sequence (P42330 whole entry): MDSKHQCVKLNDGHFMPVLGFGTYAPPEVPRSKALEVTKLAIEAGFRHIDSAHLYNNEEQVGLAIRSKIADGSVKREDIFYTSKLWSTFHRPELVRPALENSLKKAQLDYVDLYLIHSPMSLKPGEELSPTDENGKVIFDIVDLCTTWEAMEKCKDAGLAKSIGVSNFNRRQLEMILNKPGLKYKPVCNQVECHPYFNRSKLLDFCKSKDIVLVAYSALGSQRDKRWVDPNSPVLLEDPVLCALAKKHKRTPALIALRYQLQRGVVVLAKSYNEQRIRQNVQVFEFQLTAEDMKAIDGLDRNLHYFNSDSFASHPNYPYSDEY
Assay: AKR1C3-Inhibitory Activity Assay: The enzyme used was recombinant human AKR1C3 (Aldo-keto reductase family 1 member C3; GenBank Accession No. NM_003739). This was expressed in E. coli as GST (glutathione S transferase) fusion protein and purified by glutathione Sepharose affinity chromatography. The GST was removed by digestion with thrombin and subsequent size exclusion chromatography (Dufort, I., Rheault, P., Huang, X F., Soucy, P., and Luu-The, V., Endocrinology 140, 568-574 (1999)).For the assay, 50 nl of a 100-fold concentrated solution of the test substance in DMSO were pipetted into a black low-volume 384-well microtiter plate (Greiner Bio-One, Frickenhausen, Germany), 2.5 μl of a solution of AKR1C3 in assay buffer [50 mM potassium phosphate buffer pH 7, 1 mM DTT, 0.0022% (w/v) Pluronic F-127, 0.01% BSA (w/v) and protease inhibitor cocktail (Complete, EDTA-free Protease Inhibitor Cocktail from Roche)] were added and the mixture was incubated for 15 min to allow pre-binding of the substances to the enzyme prior to the enzyme reaction. The enzyme reaction was then started by addition of 2.5 μl of a solution of NADPH (20 μM→final concentration in 5 μl of assay volume is 10 μM) and Coumberone (0.6 μM→final concentration in 5 μl of assay volume is 0.3 μM) in assay buffer, and the resulting mixture was incubated at 22° C. for the reaction time of typically 90 min. […]

IC50 [nM] | Compound
0.7 | O=C(c1cnn[nH]1)N1CC2CCC(C1)N2S(=O)(=O)c1ccccc1Br
1.4 | O=C(c1cnn[nH]1)N1CC2CCC(C1)N2S(=O)(=O)c1ccccc1Cl
